Measured values: patent publication US20050215490A1, “Polyene polyketides and methods of treating bacterial infections” (Ecopia BioSciences, Inc., priority 2003, published 2005)
Values after ≈ are worked out from the molar mass of the structure shown.

Columns and labels:
[1] = system: S. aureus MRSA-hVISA (ATCC™ 700699); assay: Minimal bactericidal concentration (NCCLS M26-A); assay type: cell-based, Staphylococcus aureus; settings: for MBC: Staphylococcus aureus, more than 99.9% growth inhibition
Method: (§1) Minimal bactericidal concentration (MBC) was also determined for Compounds 1 and 2. […] MBC were measured against three Staphylococcus strains, namely sp. aureus MSSA (ATCC™ 6538P), sp. aureus MRSA-hVISA (ATCC™ 700699) and sp. epidermidis (ATCC™ 12228). The results, shown in Table 6 below, were consistent with bactericidal activity (MBC/MIC ratio were of 1 to 2).
(§2) MBC determination was performed according to the NCCLS guideline M26-A: Methods for Determining Bactericidal Activity of Antimicrobial Agents (NCCLS document […], ISBN 1-56238-394-9; NCCLS, 940 West Valley Road, Suite 1400, Wayne, Pa. 19087-1898 USA), the content of which is incorporated herein by reference.
(§3) Microdilutions broth assays were performed using the same procedure as for MIC determination, Example 6. 24 hours post-incubation, cells were collected in wells corresponding to the MIC, 2×MIC and 4×MIC. Collected cells were plated on agar media. MBC were determined as the drug concentration at which more than 99.9% growth inhibition was observed. As a reference for 100% growth, cells grown in media only were also plated.

[2] = system: S. aureus MSSA (ATCC™ 6538P); assay: Minimal bactericidal concentration (NCCLS M26-A); assay type: cell-based, Staphylococcus aureus; settings: for MBC: Staphylococcus aureus, more than 99.9% growth inhibition
Method: as §1, §2, §3

[3] = system: Staphylococcus aureus (Smith strain, ATCC™ 13709); assay: In vivo efficacy, acute lethal S. aureus infection in mice; settings: ICR mice; i.p. one hour post infection; lowest dose tested; 100% protection
Method: B. Efficacy: In vivo efficacy studies were performed on ICR mice (supplied by Charles River Laboratories, Wilmington, Mass.) having a bodyweight of 20±2 g. Mice (38) were inoculated i.p. with an LD90-100 dose (1×10^6 CFU/mouse) of Staphylococcus aureus (Smith strain, ATCC™ 13709) suspended in 0.5 mL of BHI containing 5% mucin. Compound 1 at doses 20, 30, 40, 50, 60 and 70 mg/kg (formulated in 20% propylene glycol/water for a total volume of 10 μL/g of weigth) was administered i.p. one hour post infection (5 mice for each concentration). Another group of 5 mice was treated i.v. with a 10 mg/kg dose of Vancomycin. A last group of 3 mice was administered vehicle only. Mortality was recorded for 7 days.

[4] = system: S. epidermidis (ATCC™ 12228); assay: Minimal bactericidal concentration (NCCLS M26-A); assay type: cell-based, Staphylococcus epidermidis; settings: for MBC: Staphylococcus epidermidis, more than 99.9% growth inhibition
Method: as §1, §2, §3

CD-1 female mice = assay: in vivo; settings: CD-1, mouse
Method: (§4) A. Toxicity: Acute toxicities were determined using CD-1 female mice (supplied by Charles River Laboratories, Wilmington, Mass.) having a bodyweight of 18-25 g, and about 6 weeks of age. Compounds 1 and 2 at doses ranging from 1 to 70 mg/kg (formulated in 20% propylene glycol/water for a total volume of 10 μL/g of weight) were administered intraperitoneal (i.p.) and intravenous (i.v.) to groups of 5 mice (5 mice per concentration, per mode of administration). Two groups of 3 mice were injected with vehicle only. Mice were observed immediately after injection, within 4 hours and once a day for the subsequent days. Acute toxicity studies of Compound 1 in mice indicated no observable effect and high dose tolerability: 70 mg/kg intraperitoneal and 50 mg/kg intravenous (an MTD of 250 mg/kg was also determined by oral administration). […] In vitro Haemolytic activity results are also shown in Table 7, along with the in vivo toxicity and efficacy of Compound 1.

in vivo = settings: female, CD-1, mouse
Method: as §4

in vitro = assay type: cell-based; settings: sheep; concentration to achieve 50% hemolysis of SRBC; read-out: In vitro Hemolytic activity (EC50)
Method: as §4

SRBC = assay: in vitro; assay type: cell-based; settings: at a concentration of 128 μg/ml
Method: as §4

| Compound | MBC/MIC [1] | MBC [1] [µg/mL] | MBC/MIC [2] | MBC [2] [µg/mL] | In vivo efficacy: S. aureus (Smith), protective dose [3] | MBC/MIC [4] | MBC [4] [µg/mL] | Acute toxicity: dose with no observable effect (high dose tolerability) (CD-1 female mice; ip) [mg/kg] | Acute toxicity: dose with no observable effect (high dose tolerability) (CD-1 female mice; iv) [mg/kg] | MTD (in vivo; ip) [mg/kg] | MTD (in vivo; po) [mg/kg] | EC50 (in vitro) [µg/mL] | Haemolytic activity (SRBC) |
| --- | --- | --- | --- | --- | --- | --- | --- | --- | --- | --- | --- | --- | --- |
| CC(=CC=CC=CC=CC=CC(C)C(OC1OC(C(=O)O)C(O)C(O)C1O)C(C)=CC(C)CCCC=CC(C)CC=CCCCN(C)C(=N)N)C(=O)NC1=C(O)CCC1=O (centres unmarked) [Compound 1, 3,4,5-trihydroxy-6-[1-[11-(2-hydroxy-5-oxocyclopent-1-enylcarbamoyl)-1-methyldodeca-2,4,6,8,10-pentaenyl]-2,4,10-trimethyl-16-(N-methyl-guanidino)-hexadeca-2,8,12-trienyloxy]-tetrahydropyran-2-carboxylic acid] | 1 | 4 (≈ 4.78 µM) | 2 | 4 (≈ 4.78 µM) | ≦20 mg/kg | 1 | 4 (≈ 4.78 µM) | 70 | 50 | 70 | 250 | > 128 |  |
| C\C(=C/C=C/C=C/C=C/C=C/C(C)C(OC1OC(C(=O)O)C(O)C(O)C1O)/C(C)=C/C(C)CCC/C=C/C(C)C/C=C/CCCNC(=N)N)C(=O)NC1=C(O)CCC1=O (centres unmarked) [Compound 2, 6-{16-guanidino-1-[11-(2-hydroxy-5-oxocyclopent-1-enylcarbamoyl)-1-methyldodeca-2,4,6,8,10-pentaenyl]-2,4,10-trimethylhexadeca-2,8,12-trienyloxy}-3,4,5-trihydroxy-tetrahydro-pyran-2-carboxylic acid] | 2 | 2 (≈ 2.43 µM) | 2 | 2 (≈ 2.43 µM) |  | 1 | 1 (≈ 1.22 µM) |  | 25 |  |  |  | No Haemolytic activity |
